Assay results as given in patent publication US11007183B2, “Cancer treatments using combinations of PI3K/Akt pathway and ERK inhibitors” (BIOMED VALLEY DISCOVERIES, INC., priority 2013, dated 2021).
“Also recorded” adds a separate entry of the source.

Experiments:
parental HCT116 cells = experiment: Combination proliferation assay (Loewe/Bliss); assay type: cell-based; conditions: Homo sapiens, HCT-116, 2.5% serum, mean of n=4 separate combinations, read-out: IC50 (single agent, derived from combination assay plates)
Method: Cells were seeded into triplicate 96-well plates at the densities indicated in Table 11 in McCoy's 5A media containing 2.5% FBS and allowed to adhere overnight prior to addition of test compound or vehicle control. Combinations were tested using either a 10×8 or for the follow-up HCT116 study a 3×1 dose matrix.
Test compounds were incubated with the cells for 72 h at 37° C., 5% CO2 in a humidified atmosphere. CellTiter-Glo® reagent (Promega, Madison, Wis.) was added according to manufacturer's instructions and luminescence detected using the BMG FLUOstar plate reader (BMG Labtech, Ortenberg, Germany). The average media only background value was deducted and the data analysed.
For the 10×8 combination assays the combination interactions across the dose matrix were determined by the Loewe Additivity and Bliss independence models using Chalice™ Combination Analysis Software (Horizon Discovery Group, Cambridge, Mass.) as outlined in the user manual (available at chalice.horizondiscovery.com/chalice-portal/documentation/analyzer/home.jsp). Synergy is determined by comparing the experimentally observed level of inhibition at each combination point with the value expected for additivity, which is derived from the single-agent responses along the edges of the matrix. […]

[1] = tested on: MAPK signaling in A375 cells; experiment: Western blot of MAPK signaling, cell cycle and apoptosis markers; assay type: cell-based, human
Method: (§1) For Western blot studies, HCT116 cells (5×10^6) were seeded into 10 cm dishes in McCoy's 5A plus 10% FBS. A375 cells (2.5×10^6) were seeded into 10 cm dishes in DMEM plus 10% FBS. Cells were allowed to adhere overnight prior to addition of the indicated amount of test compound (BVD-523) or vehicle control. Cells were treated for either 4 or 24 hours before isolation of whole-cell protein lysates, as specified below. Cells were harvested by trypsinisation, pelleted and snap frozen. Lysates were prepared with RIPA (Radio-Immunoprecipitation Assay) buffer, clarified by centrifugation and quantitated by bicinchoninic acid assay (BCA) assay. 20-50 μg of protein was resolved by SDS-PAGE electrophoresis, blotted onto PVDF membrane and probed using the antibodies detailed in Table 9 (for the 4-hour treatment) and Table 10 (for the 24-hour treatment) below.

[2] = tested on: MAPK signaling in HCT-116 cells; experiment: Western blot of MAPK signaling markers; assay type: cell-based, human; conditions: HCT116 KRAS mutant cell line, 4 hours, micromolar concentrations
Method: as §1

[3] = A375, prolonged (24 hours) treatment

CC(C)Nc1cc(-c2c[nH]c(C(=O)N[C@H](CO)c3cccc(Cl)c3)c2)c(Cl)cn1 [BVD-523]
IC50 (parental HCT116 cells): 130 nM
cyclin-D1 protein level ([1]; 24 hours (prolonged) treatment): greatly reduced
MAPK feedback phosphatase DUSP6 protein level ([1]; 24 hours (prolonged) treatment, BRAF mutant cells): greatly reduced
Apoptosis / PARP cleavage [1, 3]: PARP protein cleavage and increased apoptosis were not noted; also recorded: increased apoptosis was not observed
Bim-EL level [1, 3]: increased
Phosphorylation of ERK-dependent residues (T359/S363) in RSK 1 and 2 ([1]; A375 BRAF mutant cell line, 4 hours, micromolar concentrations): reduced
Concentrations required to induce changes in substrate phosphorylation and effector targets of ERK kinases ([1]; RAF and RAS mutant cancer cells in-vitro, acute and prolonged treatment): low micromolar range
Cellular ERK enzyme activity ([1]; acute or prolonged treatment): fully inhibited
Phosphorylation of ERK-dependent residues (T359/S363) in RSK 1 and 2 [2]: reduced
